Results taken from PubChem BioAssay (NCI).
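96-well plates; 48 h exposure; 5 concentrations. Endpoints by linear interpolation between flanking doses. Not reached: highest tested concentration assigned. TGI is the concentration that stops growth completely.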

Key:
Assay in all cases: DTP human tumour cell line panel, 48 h
COLO 205 colon = tested on: COLO 205 colon
UACC-62 melanoma = tested on: UACC-62 melanoma
HOP-92 NSCLC = tested on: HOP-92 NSCLC
BT-549 breast = tested on: BT-549 breast
A498 renal = tested on: A498 renal
ACHN renal = tested on: ACHN renal
SF-268 CNS = tested on: SF-268 CNS
HCT-116 colon = tested on: HCT-116 colon
MALME-3M melanoma = tested on: MALME-3M melanoma
SK-OV-3 ovarian = tested on: SK-OV-3 ovarian
OVCAR-5 ovarian = tested on: OVCAR-5 ovarian
TK-10 renal = tested on: TK-10 renal
UACC-257 melanoma = tested on: UACC-257 melanoma
HCT-15 colon = tested on: HCT-15 colon
MDA-N = tested on: MDA-N
PC-3 prostate = tested on: PC-3 prostate
OVCAR-3 ovarian = tested on: OVCAR-3 ovarian
SW-620 colon = tested on: SW-620 colon
SK-MEL-2 melanoma = tested on: SK-MEL-2 melanoma
786-0 renal = tested on: 786-0 renal
HCC-2998 colon = tested on: HCC-2998 colon
HL-60(TB) leukemia = tested on: HL-60(TB) leukemia
SF-295 CNS = tested on: SF-295 CNS
RPMI-8226 leukemia = tested on: RPMI-8226 leukemia
K-562 leukemia = tested on: K-562 leukemia
NCI-H226 lung = tested on: NCI-H226 lung
EKVX NSCLC = tested on: EKVX NSCLC
CAKI-1 renal = tested on: CAKI-1 renal
NCI-H23 lung = tested on: NCI-H23 lung
HOP-62 NSCLC = tested on: HOP-62 NSCLC
OVCAR-4 ovarian = tested on: OVCAR-4 ovarian
SR leukemia = tested on: SR leukemia
SK-MEL-28 melanoma = tested on: SK-MEL-28 melanoma
MDA-MB-435 = tested on: MDA-MB-435
CCRF-CEM leukemia = tested on: CCRF-CEM leukemia
U251 CNS = tested on: U251 CNS
NCI-H460 lung = tested on: NCI-H460 lung
MDA-MB-231 breast = tested on: MDA-MB-231 breast
RXF 393 renal = tested on: RXF 393 renal
UO-31 renal = tested on: UO-31 renal
NCI-H522 lung = tested on: NCI-H522 lung
IGROV1 ovarian = tested on: IGROV1 ovarian
SN12C renal = tested on: SN12C renal
MCF7 breast = tested on: MCF7 breast
SK-MEL-5 melanoma = tested on: SK-MEL-5 melanoma
HT29 colon = tested on: HT29 colon
KM12 colon = tested on: KM12 colon
LOX IMVI melanoma = tested on: LOX IMVI melanoma
DU-145 prostate = tested on: DU-145 prostate
SNB-19 CNS = tested on: SNB-19 CNS
OVCAR-8 ovarian = tested on: OVCAR-8 ovarian
HS 578T breast = tested on: HS 578T breast
NCI/ADR-RES ovarian = tested on: NCI/ADR-RES ovarian
A549 NSCLC = tested on: A549 NSCLC
SF-539 CNS = tested on: SF-539 CNS
M14 melanoma = tested on: M14 melanoma
MOLT-4 leukemia = tested on: MOLT-4 leukemia

Measured: TGI

CC1(C)OC2OC(COC(=O)C=[N+]=[N-])C3OC(C)(C)OC3C2O1 (stereo not given)
> 100 µM: COLO 205 colon | UACC-62 melanoma | HOP-92 NSCLC | BT-549 breast | A498 renal | ACHN renal | SF-268 CNS | HCT-116 colon | MALME-3M melanoma | SK-OV-3 ovarian | OVCAR-5 ovarian | TK-10 renal | UACC-257 melanoma | HCT-15 colon | MDA-N | PC-3 prostate | OVCAR-3 ovarian | SW-620 colon | SK-MEL-2 melanoma | 786-0 renal | HCC-2998 colon | HL-60(TB) leukemia | SF-295 CNS | RPMI-8226 leukemia | K-562 leukemia | NCI-H226 lung | EKVX NSCLC | CAKI-1 renal | NCI-H23 lung | HOP-62 NSCLC | OVCAR-4 ovarian | SR leukemia | SK-MEL-28 melanoma | MDA-MB-435 | CCRF-CEM leukemia | U251 CNS | NCI-H460 lung | MDA-MB-231 breast | RXF 393 renal | UO-31 renal | NCI-H522 lung | IGROV1 ovarian | SN12C renal | MCF7 breast | SK-MEL-5 melanoma | HT29 colon | KM12 colon | LOX IMVI melanoma | DU-145 prostate | SNB-19 CNS

Cc1ccc(C(=O)OC[C@H]2CC[C@@H](n3cc(N(C)C4CCCCC4)c(=O)[nH]c3=O)O2)cc1
37.8 µM: HT29 colon
47.2 µM: MCF7 breast
86.5 µM: SF-268 CNS
41.7 µM: HOP-62 NSCLC
41.3 µM: MDA-MB-231 breast
40.9 µM: KM12 colon
98.5 µM: UACC-257 melanoma
32.6 µM: M14 melanoma
43.1 µM: SF-295 CNS
54.4 µM: OVCAR-3 ovarian
79.3 µM: ACHN renal
38.7 µM: U251 CNS
53 µM: SF-539 CNS
95.2 µM: TK-10 renal
37.7 µM: RXF 393 renal
46.6 µM: NCI-H522 lung
68.4 µM: OVCAR-4 ovarian
56.7 µM: NCI/ADR-RES ovarian | MALME-3M melanoma
56.6 µM: NCI-H226 lung
61.4 µM: SNB-19 CNS
62.7 µM: UO-31 renal
81 µM: OVCAR-5 ovarian
77.9 µM: RPMI-8226 leukemia
40.1 µM: SK-MEL-5 melanoma
46.8 µM: A498 renal
96.2 µM: UACC-62 melanoma
> 100 µM: OVCAR-8 ovarian | HS 578T breast | SK-OV-3 ovarian | PC-3 prostate | SW-620 colon | SK-MEL-2 melanoma | 786-0 renal | HCC-2998 colon | HL-60(TB) leukemia | A549 NSCLC | K-562 leukemia | EKVX NSCLC | CAKI-1 renal | NCI-H23 lung | SR leukemia | SK-MEL-28 melanoma | MDA-MB-435 | MOLT-4 leukemia | NCI-H460 lung | IGROV1 ovarian | DU-145 prostate
38.2 µM: LOX IMVI melanoma
39.5 µM: COLO 205 colon | SN12C renal
90.7 µM: MDA-N
32.4 µM: HCT-116 colon
93 µM: HCT-15 colon | CCRF-CEM leukemia
